{
  "source": "paper PMC4424274",
  "about": "“Evaluation of [^11C]CB184 for imaging and quantification of TSPO overexpression in a rat model of herpes encephalitis” (European Journal of Nuclear Medicine and Molecular Imaging, 2015)",
  "key": {"[1]": {"assay": "Plasma clearance and plasma metabolite analysis", "type": "in vivo, rat", "conditions": "metabolite-corrected plasma, intravenous injection, rats", "experimental": "(§1) PET scans with arterial blood sampling were performed in a different set of rats to generate input for pharmacokinetic modelling. For the arterial blood sampling a cannula was inserted into the femoral artery after induction of anaesthesia. The femoral vein was additionally cannulated for PET tracer injection. After cannulation, the rats were positioned in the camera and a transmission scan was acquired using a ^57Co point source. […] A 0.1 ml blood sample of was taken at 0, 5, 10, 15, 20, 30, 45, 60, 75, 90, 120, 180, 300, 450, 600, 900, 1,800 and 3,600 s after injection. A larger blood sample of 0.5 ml was taken at three time points (5, 15, 30 and/or 60 min) for metabolite analysis. After collection of each blood sample, heparinized saline was injected to prevent large changes in blood pressure. A 25 μl aliquot of whole blood was extracted from each sample for radioactivity measurement. The remainder of each sample was centrifuged at 13,000 rpm (15,996 g) for 8 min, and 25 μl plasma was taken for radioactivity measurement. The radioactivity in blood and plasma was measured with a gamma counter.\nRadioactive metabolites in plasma were measured using the extra blood samples taken at three time points during each scan (5, 15, 30 and/or 60 min). After centrifugation and collection of the plasma sample for radioactive measurement, as described above, the remaining plasma was diluted with acetonitrile (1.5 times the amount of plasma) and vortex-mixed. The plasma suspension was centrifuged at 5,300 rpm (3,030 g) for 3 min, and divided into supernatant and pellet. […] Fractions of 30 s were collected and measured in the gamma counter.\nThe percentage of metabolites in plasma was calculated by fitting an exponential function to the values obtained from the HPLC analysis. The plasma values obtained from the blood samples during the PET scan were then corrected for the presence of these metabolites, and used together with the whole-blood curve for further analysis. Metabolite corrected plasma TACs were fitted for each individual rat using iterative nonlinear least-squares fitting to the biexponential equation: SUVt = Ae^−αt + Be^−βt, where SUVt is the plasma SUV at time t, α and β are the apparent distribution and elimination rate constants (s^−1), respectively, and A and B are the corresponding zero-time intercepts. The weighting factors were the reciprocals of the plasma SUV squared. Distribution and elimination half-lives (seconds) were calculated as the natural logarithm of 2 divided by α and β, respectively."}, "TSPO [2]": {"biological_target": "T1, TSPO (Rattus norvegicus, UniProt P16257)", "T1 construct": "from tissue; host or cells: Brain regions and peripheral organs of male Wistar rats, measured in vivo by PET and ex vivo by gamma counting", "assay": "Kinetic modelling of PET data (2TCMR, Logan): BPND and VT", "type": "in vivo", "experimental": "as §1\nThe TACs of those rats in which blood sampling was performed, together with their corresponding whole-blood and metabolite-corrected plasma curves, were used for pharmacokinetic modelling using PMOD v3.3 (PMOD Technologies, Zürich, Switzerland). […] The reversible two-tissue compartment model (2TCMR) with K 1/k 2 fixed to the whole cortex value and a fixed blood volume of 3 % were used to calculate the V T and nondisplaceable binding potential (BPND, calculated as k 3/k 4 [29])."}, "[3]": {"set-up": "method as in PMID 19050880", "conditions": "cited from earlier work"}, "[4]": {"conditions": "lipophilicity; cited from earlier work"}, "TSPO [5]": {"biological_target": "T1, TSPO", "assay": "Ex vivo biodistribution of [^11C]CB184 in control and HSE rats", "conditions": "5 mg/kg unlabelled PK11195 5 min before tracer injection; control and HSE rats", "experimental": "PET scans were performed using a microPET Focus 220 camera (Siemens Medical Solutions Inc., Malvern, PA) on either day 6 or day 7 after inoculation with HSV-1 [18], depending on the severity of clinical symptoms. The rats were anaesthetized with 5 % isoflurane mixed with medical air at a flow rate of […]. After induction, anaesthesia was maintained with 1.5 – 2 % of isoflurane. The anaesthetized rats were positioned in the camera in a supine position with the head in the field of view. The PET tracer [^11C]CB184 was manually injected via the penile vein, and at the same time a dynamic 60-min scan was started. […] For 30 min the animals were kept under anaesthesia on the operation table after injection of the PET tracer into the penile vein, and were then placed in the scanner for a 30-min dynamic scan. A transmission scan was obtained in all rats using a ^57Co point source for attenuation and scatter correction. In the pretreated group, 5 mg/kg unlabelled PK11195 (Sigma-Aldrich, St. Louis, MO) in dimethyl sulphoxide (DMSO) at a concentration of 10 mg/ml was administered via a tail vein 5 min before injection of the PET tracer.\nThe brain and peripheral organs were excised and dissected, and blood was centrifuged to collect a plasma sample. Tissues were weighed and radioactivity was measured in a gamma counter (LKB Wallac, Turku, Finland). Tracer uptake in each region was corrected for the injected tracer dose and body weight and expressed as standardized uptake value (SUV), which was defined as: radioactivity (MBq/cm^3)/[injected dose (MBq)/body weight (g)]."}, "TSPO [6]": {"biological_target": "T1, TSPO", "conditions": "HSE rat model; cited from earlier work"}, "[7]": {"conditions": "control rats (PBS group), k3/k4"}},
  "note": "Where “and” joins values, the source holds several entries; their conditions need not be identical. Identical values can stand only once. Like-named read-outs stand apart in the source and are kept apart here.",
  "data": [
    {"smiles": "CC[C@@H](C)N([11CH3])C(=O)c1cc2ccccc2c(-c2ccccc2Cl)n1", "note": "[(R)-[^11C]PK11195, reference compound]", "values": [
      {"measurement": "Distribution half-life in plasma", "setting": "[1]", "result": "0.367 ± 0.12", "unit": "min"},
      {"measurement": "Elimination half-life in plasma", "setting": "[1]", "result": "65 ± 46", "unit": "min"},
      {"measurement": "Binding potential (BPND), Amygdala", "setting": "TSPO [2]; HSE group, k3/k4", "result": "1.92 ± 0.73"},
      {"measurement": "Binding potential (BPND), Cerebellum", "setting": "TSPO [2]; HSE group, k3/k4", "result": "1.89 ± 0.39"},
      {"measurement": "Binding potential (BPND), Frontal cortex", "setting": "TSPO [2]; HSE group, k3/k4", "result": "1.54 ± 0.54"},
      {"measurement": "Binding potential (BPND), Hippocampus", "setting": "TSPO [2]; HSE group, k3/k4", "result": "1.39 ± 0.58"},
      {"measurement": "Binding potential (BPND), Hypothalamus", "setting": "TSPO [2]; HSE group, k3/k4", "result": "2.28 ± 0.84"},
      {"measurement": "Binding potential (BPND), Midbrain", "setting": "TSPO [2]; HSE group, k3/k4", "result": "1.34 ± 0.42"},
      {"measurement": "Binding potential (BPND), Olfactory bulb", "setting": "TSPO [2]; HSE group, k3/k4", "result": "4.03 ± 1.20"},
      {"measurement": "Binding potential (BPND), Pons", "setting": "TSPO [2]; HSE group, k3/k4", "result": "2.44 ± 0.41"},
      {"measurement": "Binding potential (BPND), Rest cortices", "setting": "TSPO [2]; HSE group, k3/k4", "result": "1.62 ± 0.60"},
      {"measurement": "Binding potential (BPND), Septum", "setting": "TSPO [2]; HSE group, k3/k4", "result": "1.34 ± 0.57"},
      {"measurement": "Binding potential (BPND), Striatum", "setting": "TSPO [2]; HSE group, k3/k4", "result": "1.03 ± 0.43"},
      {"measurement": "Binding potential (BPND), Thalamus", "setting": "TSPO [2]; HSE group, k3/k4", "result": "1.03 ± 0.51"},
      {"measurement": "Binding potential (BPND), Whole brain", "setting": "TSPO [2]; HSE group, k3/k4", "result": "1.72 ± 0.49"},
      {"measurement": "Binding potential (BPND), Amygdala", "setting": "TSPO [2]; [7]", "result": "1.65 ± 0.62"},
      {"measurement": "Binding potential (BPND), Cerebellum", "setting": "TSPO [2]; [7]", "result": "1.51 ± 0.60"},
      {"measurement": "Binding potential (BPND), Frontal cortex", "setting": "TSPO [2]; [7]", "result": "1.35 ± 0.51"},
      {"measurement": "Binding potential (BPND), Hippocampus", "setting": "TSPO [2]; [7]", "result": "0.98 ± 0.44"},
      {"measurement": "Binding potential (BPND), Hypothalamus", "setting": "TSPO [2]; [7]", "result": "1.92 ± 0.82"},
      {"measurement": "Binding potential (BPND), Medulla", "setting": "TSPO [2]; [7]", "result": "1.7 ± 0.6 and 1.65 ± 0.60"},
      {"measurement": "Binding potential (BPND), Midbrain", "setting": "TSPO [2]; [7]", "result": "0.96 ± 0.49"},
      {"measurement": "Binding potential (BPND), Olfactory bulb", "setting": "TSPO [2]; [7]", "result": "3.76 ± 1.16"},
      {"measurement": "Binding potential (BPND), Pons", "setting": "TSPO [2]; [7]", "result": "1.74 ± 0.69"},
      {"measurement": "Binding potential (BPND), Rest cortices", "setting": "TSPO [2]; [7]", "result": "1.33 ± 0.46"},
      {"measurement": "Binding potential (BPND), Septum", "setting": "TSPO [2]; [7]", "result": "1.20 ± 0.38"},
      {"measurement": "Binding potential (BPND), Striatum", "setting": "TSPO [2]; [7]", "result": "0.88 ± 0.33"},
      {"measurement": "Binding potential (BPND), Thalamus", "setting": "TSPO [2]; [7]", "result": "0.75 ± 0.35"},
      {"measurement": "Binding potential (BPND), Whole brain", "setting": "TSPO [2]; [7]", "result": "1.38 ± 0.49"},
      {"measurement": "Increase of BPND in the medulla, HSE rats vs. control rats", "setting": "TSPO [2]; medulla", "result": 55, "unit": "%"},
      {"measurement": "Percentage of unchanged tracer in rat brain homogenate", "setting": "[3]; 20 min after injection", "result": "93 ± 4", "unit": "%"},
      {"measurement": "Percentage of unchanged tracer in rat brain homogenate", "setting": "[3]; 40 min after injection", "result": "90 ± 7", "unit": "%"},
      {"measurement": "logP", "setting": "[4]", "result": 2.54}
    ]},
    {"smiles": "CCC(C)N(C)C(=O)c1cc2ccccc2c(-c2ccccc2Cl)n1", "note": "(centres unmarked) [PK11195, reference compound]", "values": [
      {"measurement": "Effect of pretreatment on [^11C]CB184 binding to TSPO", "setting": "TSPO [5]", "result": "blocked"}
    ]},
    {"smiles": "COc1ccc(O[11CH3])c(CN(C(C)=O)c2cc(F)ccc2Oc2ccccc2)c1", "note": "[[^11C]DAA1106]", "values": [
      {"measurement": "Uptake in vivo in HSE rats vs. control rats", "setting": "TSPO [6]", "result": "did not show significantly higher uptake"}
    ]}
  ]
}
